The nature of the data set: physchem.

SMILES strings stand for the structures. ≈ marks a conversion by molar mass, not a printed value.

Compound `CC(C)Cc1ccc(C(C)C(=O)O)cc1` (stereo not shown) [Ibuprofen] gave a solubility of 0.073 mg/mL (≈ 354 µM).

As usually defined, the solubility is the concentration that dissolves in the medium under given conditions.

Values taken from patent US7951399B2, “Process for activation of drugs in a vibrational mill” (Eurand Pharmaceuticals Ltd., priority 2001, dated 2011).
